Our source for the TGI and GI50 values is PubChem BioAssay (NCI).

Among the test systems are NCI/ADR-RES ovarian; SW-620 colon; MDA-MB-435; UO-31 renal; MCF7 breast; DU-145 prostate; ACHN renal; HOP-92 NSCLC; CAKI-1 renal; SN12C renal.
What all share (test): NCI tumour cell line growth inhibition, 48 h

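96-well plates; 48 h exposure; 5 concentrations. Endpoints by linear interpolation between flanking doses. Not reached: highest tested concentration assigned. The concentration for 50% growth inhibition is given as GI50. At the TGI there is no net growth.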 Bounds are passed on as bounds.

`CC(O)(CNS(=O)(=O)c1ccccc1)c1ccccc1` (centres undefined): the TGI in the assay with NCI/ADR-RES ovarian, in the assay with SW-620 colon, in the assay with MDA-MB-435, in the assay with UO-31 renal, with MCF7 breast and in the assay on DU-145 prostate was over 100 µM each time. Moreover, the TGI in the assay with ACHN renal, in the assay with HOP-92 NSCLC, in the assay on CAKI-1 renal and in the assay with SN12C renal was over 100 µM in each case.
Turning to `CCOc1ccc2ccc3cccnc3c2n1`, the TGI is over 100 µM in the assay with NCI/ADR-RES ovarian; over 100 µM in the assay on SW-620 colon; over 100 µM in the assay on MDA-MB-435; over 100 µM in the assay on UO-31 renal; 45.8 µM in the assay on MCF7 breast; over 100 µM with DU-145 prostate. Besides, the TGI in the assay on ACHN renal, in the assay with HOP-92 NSCLC, in the assay with CAKI-1 renal and in the assay with SN12C renal was over 100 µM each time.
As to `O=C1c2ccn(CCCCN3CCCCC3)c2C(=O)c2c1c(O)c1ccccc1c2O`, the GI50 in the assay with NCI/ADR-RES ovarian was 14.4 µM; with SW-620 colon, 3.18 µM; with MDA-MB-435, 2.19 µM; with UO-31 renal, 20.9 µM; with MCF7 breast, 14.2 µM; in the assay on DU-145 prostate, 14.1 µM. The GI50 in the assay with ACHN renal is 18.7 µM; with HOP-92 NSCLC, 3.68 µM; with CAKI-1 renal, 1.63 µM; with SN12C renal, 16.5 µM. The TGI in the assay with NCI/ADR-RES ovarian is 55.6 µM; with SW-620 colon, 10.6 µM; in the assay with MDA-MB-435, 5.27 µM; with UO-31 renal, over 100 µM; in the assay on MCF7 breast it was over 62.3 µM; in the assay on DU-145 prostate, 30.3 µM. For the same compound, the TGI was determined as 38.5 µM in the assay on ACHN renal, 22.9 µM with HOP-92 NSCLC, 3.83 µM in the assay with CAKI-1 renal and 45 µM in the assay with SN12C renal.
`CC1SC(c2c(Cl)cccc2Cl)N(NC(=O)C(O)c2ccccc2)C1=O` (centres undefined): the GI50 is 45.4 µM with NCI/ADR-RES ovarian; over 100 µM in the assay with SW-620 colon; 43.2 µM in the assay with MDA-MB-435; over 100 µM with UO-31 renal; 74.2 µM in the assay on MCF7 breast; over 100 µM in the assay on DU-145 prostate. Also, the GI50 in the assay with ACHN renal is 92.2 µM; in the assay on HOP-92 NSCLC it was 57.8 µM; with CAKI-1 renal, 62.1 µM; in the assay with SN12C renal, over 100 µM. Besides, the TGI with NCI/ADR-RES ovarian, with SW-620 colon, in the assay on MDA-MB-435, with UO-31 renal, in the assay with MCF7 breast and in the assay with DU-145 prostate was over 100 µM each time. The TGI in the assay on ACHN renal, with HOP-92 NSCLC, with CAKI-1 renal and in the assay on SN12C renal was over 100 µM throughout.
`COc1ccc(/C=C(/C)[N+](=O)[O-])cc1`: the TGI in the assay on NCI/ADR-RES ovarian was 13.6 µM; in the assay with SW-620 colon it was over 20.6 µM; with MDA-MB-435, 4.16 µM; in the assay on UO-31 renal it was 3.15 µM; with MCF7 breast, 2.51 µM; with DU-145 prostate, 6.26 µM. Moreover, the TGI with ACHN renal is 3.97 µM; in the assay with HOP-92 NSCLC, 5.66 µM; in the assay with CAKI-1 renal, 6.07 µM; in the assay with SN12C renal, 4.62 µM.
As to `CS(=O)(=O)CCn1c(=O)c(Oc2ccc(F)cc2F)cc2cnc(NC3CCOCC3)nc21`, the GI50 in the assay on NCI/ADR-RES ovarian, in the assay on SW-620 colon, with MDA-MB-435, in the assay with UO-31 renal, with MCF7 breast and with DU-145 prostate was over 25 µM each time. For the same compound, the GI50 in the assay on ACHN renal is over 25 µM; in the assay with HOP-92 NSCLC, 2.64 µM; with CAKI-1 renal, over 25 µM; in the assay with SN12C renal, over 25 µM. Also, the TGI in the assay with NCI/ADR-RES ovarian, with SW-620 colon, in the assay with MDA-MB-435, in the assay on UO-31 renal, with MCF7 breast and in the assay on DU-145 prostate was over 25 µM in each case. Moreover, the TGI with ACHN renal, with HOP-92 NSCLC, in the assay with CAKI-1 renal and with SN12C renal was over 25 µM each time.
Take `C[C@@H](Oc1ccc2[nH]nc(/C=C/c3cnn(CCO)c3)c2c1)c1c(Cl)cncc1Cl`: the GI50 is 0.697 µM with NCI/ADR-RES ovarian; 0.0574 µM with SW-620 colon; 0.866 µM with MDA-MB-435; 0.217 µM with UO-31 renal; 0.0573 µM in the assay on MCF7 breast; 0.413 µM in the assay with DU-145 prostate. For the same compound, the GI50 is 0.284 µM in the assay on ACHN renal, 0.0168 µM with HOP-92 NSCLC, 0.184 µM in the assay on CAKI-1 renal and 0.121 µM with SN12C renal. For the same compound, the TGI with NCI/ADR-RES ovarian was 3.81 µM; with SW-620 colon, over 100 µM; in the assay with MDA-MB-435, 3.12 µM; in the assay with MCF7 breast, 4.06 µM; in the assay with DU-145 prostate, over 43.6 µM; with ACHN renal it was over 100 µM. The TGI in the assay on HOP-92 NSCLC was 0.0987 µM; in the assay on CAKI-1 renal, over 100 µM; with SN12C renal, over 100 µM.
`CC(=O)c1cc2c(c3ccsc13)-c1ccccc1CC2`: the GI50 is 16.6 µM in the assay on NCI/ADR-RES ovarian; 33.7 µM in the assay with SW-620 colon; 4.76 µM in the assay on MDA-MB-435; 26.6 µM in the assay on UO-31 renal; 21 µM in the assay on MCF7 breast; 23.5 µM in the assay on DU-145 prostate. In addition, the GI50 with ACHN renal is 45.5 µM; in the assay with HOP-92 NSCLC it was 28.9 µM; with CAKI-1 renal, 29.4 µM; with SN12C renal, 34.7 µM. Moreover, the TGI with NCI/ADR-RES ovarian is 44.8 µM; in the assay with SW-620 colon, over 100 µM; with MDA-MB-435, over 100 µM; with UO-31 renal it was 85.2 µM; with MCF7 breast, over 100 µM; in the assay on DU-145 prostate it was over 100 µM. Also, the TGI in the assay with ACHN renal, in the assay with HOP-92 NSCLC, in the assay on CAKI-1 renal and with SN12C renal was over 100 µM throughout.
With `CC(=O)OC1CCC2(C)C(=CCC3C4CCC5(OC6CC(C)CN(C(C)=O)C6C5C)C(C)=C4C(=O)C32)C1` (centres undefined), the TGI is 49.5 µM with NCI/ADR-RES ovarian; over 100 µM with SW-620 colon; 32 µM in the assay with MDA-MB-435; 81.4 µM in the assay with UO-31 renal; 26.4 µM with MCF7 breast; over 100 µM in the assay with DU-145 prostate. Also, the TGI in the assay on ACHN renal was found to be 67 µM; in the assay with HOP-92 NSCLC it was 28.9 µM; with CAKI-1 renal, 75.1 µM; with SN12C renal, 46.5 µM.
